{"source": "paper PMC7941644", "about": "“Identification and Development of Therapeutics for COVID-19” (ArXiv, 2021)", "origin": "cited, not measured here", "key": {"[1]": {"system": "SARS-CoV-2", "details": "SARS-CoV-2 infection of Vero cells"}, "[2]": {"system": "SARS-CoV-1", "details": "Vero E6 cells"}, "[3]": {"system": "Vero E6 cells", "details": "read-out: 90% effective concentration (EC90)"}, "[4]": {"system": "COVID-19", "design": "method as in PMID 33492523", "details": "mild to moderate symptoms, in addition to SOC; p = 0.06"}, "[5]": {"system": "COVID-19"}, "[6]": {"system": "SARS-CoV-2"}, "[7]": {"system": "COVID-19", "details": "treatment vs control groups"}, "[8]": {"system": "COVID-19", "details": "HCQ arm vs control"}, "[9]": {"system": "COVID-19", "details": "days 3–6; study design severely limited"}, "[10]": {"system": "COVID-19", "details": "ivermectin preliminary; HCQ and lopinavir-ritonavir ref 144"}, "[11]": {"system": "COVID-19", "remark": "listed apart in the source"}, "[12]": {"system": "SARS-CoV-2", "details": "second interim analysis, 600 mg daily; control 3"}, "[13]": {"system": "COVID-19", "details": "vs SOC"}, "[14]": {"system": "SARS-CoV-2", "details": "control 16.8%, p < 0.001"}, "[15]": {"system": "COVID-19", "details": "vs SOC alone"}, "[16]": {"system": "SARS-CoV-2", "design": "method as in PMID 32142651", "details": "lung cells in vitro"}, "[17]": {"system": "SARS-CoV-2", "remark": "listed apart in the source"}, "[18]": {"system": "COVID-19", "remark": "listed apart in the source"}, "[19]": {"system": "COVID-19", "remark": "listed apart in the source"}, "[20]": {"system": "COVID-19", "design": "method as in ref 145 = [145]; 145. August 6, 2021: Early Treatment of COVID-19 with Repurposed Therapies: The TOGETHER Adaptive Platform Trial (Edward Mills, PhD, FRCP) Rethinking Clinical Trials ( 2021 - 08 - 11 ) https://rethink", "details": "placebo group 107; preliminary analysis as of August 6, 2021"}, "[21]": {"system": "COVID-19", "design": "method as in PMID 33175880"}, "[22]": {"system": "SARS-CoV-2", "design": "method as in PMID 32251768", "details": "Vero-hSLAM; at concentrations much higher than existing dosage guidelines"}, "[23]": {"system": "COVID-19", "design": "method as in PMID 33662102", "details": "400 patients"}, "[24]": {"system": "COVID-19", "design": "method as in PMID 33065103"}, "[25]": {"system": "COVID-19", "remark": "listed apart in the source"}, "[26]": {"system": "COVID-19", "remark": "listed apart in the source"}, "[27]": {"system": "COVID-19", "remark": "listed apart in the source"}, "[28]": {"system": "COVID-19", "remark": "listed apart in the source"}, "[29]": {"system": "COVID-19", "details": "p < 0.001"}, "[30]": {"system": "COVID-19", "details": "95% CI 0.376–0.547, p < 0.001"}, "[31]": {"system": "COVID-19", "details": "significant when intubated patients excluded"}, "[32]": {"system": "COVID-19", "remark": "listed apart in the source"}, "[33]": {"system": "COVID-19", "remark": "listed apart in the source"}, "[34]": {"system": "COVID-19", "design": "method as in ref 210; combination ref 208", "details": "phase 2 portion; bamlanivimab alone ref 210; combination ref 208"}, "[35]": {"system": "SARS-CoV-1", "details": "mouse, in vivo"}, "[36]": {"system": "COVID-19", "details": "compared to placebo"}}, "note": "Where a name gives a salt, the structure may show the parent alone. Read-outs that look alike come from different tables or passages of the source."}
{"compound": "CCN(CC)CCCC(C)Nc1ccnc2cc(Cl)ccc12", "note": "(stereo not drawn) [CQ, chloroquine]", "values": [{"measurement": "inhibition of viral replication", "setting": "[1]", "result": "effective in inhibiting viral replication"}, {"measurement": "inhibition of viral entry", "setting": "[2]", "result": "inhibited viral entry of SARS-CoV-1"}, {"measurement": "EC90", "setting": "[3]", "result": 6.9, "unit": "µM"}, {"measurement": "hospital stay", "setting": "[4]", "result": 15.89, "unit": "days"}]}
{"compound": "CCN(CCO)CCCC(C)Nc1ccnc2cc(Cl)ccc12", "note": "(stereo not drawn) [HCQ, hydroxychloroquine]", "values": [{"measurement": "inhibition of viral replication", "setting": "[1]", "result": "effective in inhibiting viral replication"}, {"measurement": "risk with short-term use", "result": "not associated with additional risk"}, {"measurement": "difference in viral load between HCQ and control groups", "setting": "[5]; day 3, 95% CI −0.28 to 0.29", "result": 0.01}, {"measurement": "difference in viral load between HCQ and control groups", "setting": "[5]; day 7, 95% CI −0.44 to 0.29", "result": "−0.07"}, {"measurement": "difference in time to complete resolution of symptoms", "setting": "[5]; p = 0.38", "result": -2, "unit": "days"}, {"measurement": "median time to symptom alleviation", "setting": "[6]; HCQ + SOC, SOC 21 days, p = 0.97", "result": 19, "unit": "days"}, {"measurement": "estimated difference in negative conversion rate of SARS-CoV-2 in 28 days", "setting": "[6]; SOC plus HCQ vs SOC, 95% CI −10.3% to 18.5%", "result": 4.1, "unit": "%"}, {"measurement": "diarrhea", "setting": "[6]; SOC+HCQ, 0% in SOC group, p = 0.004", "result": 10, "unit": "%"}, {"measurement": "patients reporting adverse outcomes", "setting": "[6]; SOC+HCQ, SOC only 8.8%", "result": 30, "unit": "%"}, {"measurement": "virological clearance rate, time to virological clearance, time to body temperature normalization", "setting": "[7]", "result": "comparable outcomes"}, {"measurement": "increase in cardiac events", "setting": "[8]", "result": 0.4, "unit": "percentage points"}, {"measurement": "virological clearance by nasopharyngeal swab", "setting": "[9]", "result": "higher rates of virological clearance"}, {"measurement": "effect on COVID-19 outcomes", "setting": "[10]", "result": "no effect"}, {"measurement": "adjusted HR, risk of death", "setting": "[11]; compared to no-HCQ group", "result": 2.61}, {"measurement": "rate of death", "setting": "[11]; men, median age 65, no-HCQ group 14.1%", "result": 27.8, "unit": "%"}, {"measurement": "individuals who had contracted COVID-19", "setting": "[12]", "result": 4}, {"measurement": "time to fever break and time to cough relief", "setting": "[13]", "result": "decreased both average time to fever break and average time to cough relief"}, {"measurement": "patients reporting side effects", "setting": "[14]", "result": 40.1, "unit": "%"}]}
{"compound": "COC(=O)OCOc1c2n(ccc1=O)N([C@@H]1c3ccccc3SCc3c1ccc(F)c3F)[C@@H]1COCCN1C2=O", "note": "[baloxavir marboxil]", "values": [{"measurement": "effect on viral clearance at day 14 and secondary outcomes", "setting": "[15]", "result": "no significant effect"}]}
{"compound": "CN(C)C(=O)COC(=O)Cc1ccc(OC(=O)c2ccc(NC(=N)N)cc2)cc1", "note": "[camostat mesylate]", "values": [{"measurement": "block of viral entry", "setting": "[16]", "result": "block the entry of SARS-CoV-2 into lung cells"}]}
{"compound": "O=c1c2ccccc2[se]n1-c1ccccc1", "note": "[ebselen]", "values": [{"measurement": "antiviral effect in SARS-CoV-2-infected Vero cells", "setting": "[17]", "result": "strongest potency in reducing the viral load"}]}
{"compound": "NC(=O)c1nc(F)cnc1O", "note": "[favipiravir, 6-fluoro-3-hydroxy-2-pyrazinecarboxamide]", "values": [{"measurement": "effect on viral clearance at day 14 and secondary outcomes", "setting": "[15]", "result": "no significant effect"}, {"measurement": "time to viral clearance by RT-PCR", "setting": "[18]; 35 favipiravir, 45 control patients", "result": "four"}, {"measurement": "patients with adverse side effects", "setting": "[18]; control 56%", "result": 11, "unit": "%"}, {"measurement": "improvement rate of lung CT scans", "setting": "[18]; day 14, control 62%, p = 0.004", "result": 91, "unit": "%"}, {"measurement": "effect on viral clearance at four days (secondary endpoint)", "setting": "[19]", "result": "significant effect"}, {"measurement": "tolerability", "setting": "[19]", "result": "generally well-tolerated"}, {"measurement": "hospital stay", "setting": "[4]", "result": 13.29, "unit": "days"}]}
{"compound": "COCCCC/C(=N\\OCCN)c1ccc(C(F)(F)F)cc1", "note": "[fluvoxamine]", "values": [{"measurement": "patients progressed to hospitalization for COVID-19", "setting": "[20]", "result": 74}]}
{"compound": "CC[C@H](C)[C@H]1O[C@]2(CC[C@@H]1C)C[C@@H]1C[C@@H](C/C=C(\\C)[C@@H](O[C@H]3C[C@H](OC)[C@@H](O[C@H]4C[C@H](OC)[C@@H](O)[C@H](C)O4)[C@H](C)O3)[C@@H](C)/C=C/C=C3\\CO[C@@H]4[C@H](O)C(C)=C[C@@H](C(=O)O1)[C@]34O)O2", "note": "[ivermectin]", "values": [{"measurement": "clinical outcomes or viral clearance", "setting": "[21]", "result": "no difference in clinical outcomes or viral clearance"}, {"measurement": "inhibition of viral replication", "setting": "[22]", "result": "inhibit viral replication"}, {"measurement": "duration of symptoms", "setting": "[23]", "result": "no effect on the duration of symptoms"}, {"measurement": "all-cause mortality", "setting": "[24]", "result": "reduced all-cause mortality"}, {"measurement": "effect on COVID-19 outcomes", "setting": "[10]", "result": "no effect on COVID-19 outcomes"}]}
{"compound": "Cc1cccc(C)c1OCC(=O)N[C@@H](Cc1ccccc1)[C@@H](O)C[C@H](Cc1ccccc1)NC(=O)[C@H](C(C)C)N1CCCNC1=O", "note": "[lopinavir]", "values": [{"measurement": "effect on COVID-19-related mortality", "setting": "[25]", "result": "no effect"}]}
{"compound": "TCZ: humanized monoclonal antibody that binds the insoluble and soluble receptor of IL-6", "values": [{"measurement": "patients dying", "setting": "[26]; 2 of 62 admitted after TCZ available, 11 of 23 (47.8%) before", "result": 3.2, "unit": "%"}, {"measurement": "multivariate HR, survival", "setting": "[26]; CI 0.004–0.347, p = 0.004", "result": 0.035}, {"measurement": "progression to invasive medical ventilation", "setting": "[27]; SOC 32%, p = 0.006", "result": 0, "unit": "%"}, {"measurement": "mortality", "setting": "[27]; SOC 48%, p = 0.066", "result": 25, "unit": "%"}, {"measurement": "progression to death and/or ICU admission", "setting": "[27]; SOC 72%, p = 0.002", "result": 25, "unit": "%"}, {"measurement": "adjusted HR, progression to invasive medical ventilation and/or death", "setting": "[28]; 14-day period, CI 0.40–0.92, p = 0.020", "result": 0.61}, {"measurement": "death rate", "setting": "[28]; control 20%", "result": 7, "unit": "%"}, {"measurement": "secondary infections", "setting": "[28]; control group 4%, p < 0.0001", "result": 24, "unit": "%"}, {"measurement": "HR, survivorship", "setting": "[29]; 19 studies", "result": 0.41}, {"measurement": "HR, survivorship", "setting": "[29]; excluding studies that administered a steroid alongside TCZ", "result": 0.04}, {"measurement": "odds ratio of mortality", "setting": "[30]", "result": 0.453}, {"measurement": "mortality, TCZ vs SOC", "setting": "[31]", "result": "did not differ"}, {"measurement": "rate ratio, hospital discharge within 28 days", "setting": "[32]; 95% CI 1.12–1.34, p < 0.0001", "result": 1.22}, {"measurement": "rate ratio, 28-day mortality", "setting": "[32]; RECOVERY combined with seven smaller randomized control trials, 95% CI 0.79–0.96, p = 0.005", "result": 0.87}, {"measurement": "28-day mortality", "setting": "[32]; SOC alone 33%", "result": 29, "unit": "%"}, {"measurement": "rate ratio, 28-day mortality", "setting": "[32]; TCZ vs SOC, 95% CI 0.77–0.96, p = 0.007", "result": 0.86}, {"measurement": "reduction in 28-day mortality", "setting": "[32]; combined analysis of RECOVERY with smaller RCTs", "result": 13, "unit": "%"}, {"measurement": "probability of hospital discharge within 28 days", "setting": "[32]; living patients, SOC 47%", "result": 54, "unit": "%"}, {"measurement": "participants with adverse reactions determined to be associated with the intervention", "setting": "[32]; out of 2,022 participants receiving TCZ", "result": "three"}, {"measurement": "change in symptoms following treatment", "setting": "[33]", "result": "rapid improvement in symptoms"}]}
{"compound": "bamlanivimab: human mAb derived from convalescent plasma of a recovered COVID-19 patient", "values": [{"measurement": "effect on viral load", "setting": "[34]", "result": "able to accelerate the reduction in viral load"}]}
{"compound": "poly(I:C)", "values": [{"measurement": "effect when administered prior to infection", "setting": "[35]", "result": "protective effects"}]}
{"compound": "sotrovimab", "values": [{"measurement": "rates of adverse events", "setting": "[36]", "result": "comparable, and in some cases lower"}, {"measurement": "more effective in reducing progression to the primary endpoint (hospitalized for more than 24 hours or died within 29 days)", "setting": "[36]; 583 patients", "result": 85, "unit": "%"}]}
